From patent US4847254A, “CNS affecting 5-oxy-3-aminomethyl-dihydro-benzofurans and benzothiophenes” (H. Lundbeck A/S, priority 1987, dated 1989)

Legend:
Assay type in all cases: in vivo, rat (Wistar)
[1] = system: DA-autoreceptors; experiment: Inhibition of spontaneous locomotor activity (motility inhibition) in rats; settings: doses calculated as the free amine
[2] = system: DA-receptor; experiment: Contralateral circling in rats with unilateral 6-hydroxy-DA (6-OHDA) lesions; for 6-OHDA Contr. Circle. rats (sc) Duration: test concentration or dose not given here; settings: 6-OHDA-lesioned rats; for 6-OHDA Contr. Circle. rats (sc) ED50: doses calculated as the free amine; for 6-OHDA Contr. Circle. rats (sc) Duration: duration given instead of ED50
Description: Furthermore, the potency of the drug to induce contralateral circling behaviour in 6-hydroxy-DA-lesioned rats was determined. The specificity of this receptor resembles that of the […] DA receptors mediating motility inhibition.
The experiments were made according to published methods, using rats of the Wistar strain.
Therefore, also the ability of a test compound to induce contralateral circling in rats with unilateral 6-hydroxy-DA lesions was evaluated (loc cit.).

[3] = system: postsynaptic DA-receptors; experiment: Reversal of locomotor depression (hypomotility) in reserpine plus alpha-methyl-p-tyrosine pretreated rats

| SMILES | Motility Inh. rats (sc) ED50 [1] | 6-OHDA Contr. Circle. rats (sc) ED50 [2] | Reserpin α-Mt Rev. rats (sc) % at 5 μmol/kg [3] | Reserpin α-Mt Rev. rats (sc) ED50 [3] | 6-OHDA Contr. Circle. rats (sc) Duration [2] |
| --- | --- | --- | --- | --- | --- |
| CCN(CC)CC1COc2ccc(O)cc21 (stereo not drawn) [Lu 24-088, 5-Hydroxy-2,3-dihydro-N,N-diethyl-3-benzofuranmethylamine] | 1.7 µmol/kg | 1.2 µmol/kg | 13% |  |  |
| CCN(CC)CC1CCc2ccc(O)cc21 (single isomer, unassigned; (+)) [Lu 22-106, (+) N,N-diethyl-6-hydroxy-1-indanmethylamine] | 1.1 µmol/kg | 0.36 µmol/kg |  | 14 µmol/kg |  |
| CCCN(CCC)CC1COc2ccc(OC(=O)c3ccccc3C)cc21 (stereo not drawn) [Lu 24-074, 5-(2-Methylbenzoyloxy)-2,3-dihydro-N,N-dipropyl-3-benzofuranmethylamine] |  |  |  |  | 15 h |
| CCN(CC)CC1CCc2ccc(O)cc21 (single isomer, unassigned; (-)) [Lu 22-105, (-) N,N-diethyl-6-hydroxy-1-indanmethylamine] | 0.87 µmol/kg | 1.2 µmol/kg |  | 120 µmol/kg |  |
| CCN(CC)CC1CCc2ccc(OC(=O)C(C)(C)C)cc21 (stereo not drawn) [Lu 23-020, 6-pivaloyloxy-N,N-diethyl-1-indanmethylamine] | 0.84 µmol/kg | 0.33 µmol/kg |  |  |  |
| CCCN(CCC)CC1CCc2ccc(OC(=O)c3ccccc3C)cc21 (stereo not drawn) [Lu 24-028] |  |  |  |  | 18 h |
| CCCN(CCC)CC1CSc2ccc(O)cc21 (stereo not drawn) [Lu 24-100, 5-Hydroxy-2,3-dihydroxy-N,N-dipropyl-3-benzothiophenmethylamine] | 3.0 µmol/kg | 4.6 µmol/kg |  | 20 µmol/kg |  |
| CCCN(CCC)CC1CCc2ccc(OC(=O)c3ccccc3Cl)cc21 (stereo not drawn) [Lu 24-031, 6-(2-chlorobenzoyloxy)-N,N-dipropyl-1-indanmethylamine] |  |  |  |  | 4 h |
| CCCN(CCC)CC1CCc2ccc(O)cc21 (stereo not drawn) [Lu 21-051, N,N-dipropyl-6-hydroxy-1-indanmethylamine] | 0.45 µmol/kg | 0.35 µmol/kg | 44% |  |  |
| CCCN(C)CC1COc2ccc(O)cc21 (single isomer, unassigned; (-)) [Lu 25-021, (-)-5-hydroxy-2,3-dihydro-N-methyl-N-propyl-3-benzofuranmethylamine] | 5.4 µmol/kg | 5.2 µmol/kg |  | 290 µmol/kg |  |
| CCCN(CCC)CC1CCc2ccc(O)cc21 (single isomer, unassigned; (-)) [Lu 22-049, (-)-N,N-dipropyl-6-hydroxy-1-indanmethylamine] | 0.26 µmol/kg | 0.18 µmol/kg |  | 4.5 µmol/kg |  |
| CCCN(CCC)CC1CCc2ccc(OC(=O)c3ccccc3OC(C)=O)cc21 (stereo not drawn) [Lu 24-032, 6-(2-acetyloxybenzoyloxy)-N,N-dipropyl-1-indanmethylamine] |  |  |  |  | 4 h |
| CCCN(CCO)CC1COc2ccc(O)cc21 (stereo not drawn) [Lu 24-102, 5-Hydroxy-2,3-dihydro-N-(2-hydroxyethyl)-N-propyl-3-benzofuranmethylamine] | 5.4 µmol/kg | 2.1 µmol/kg |  | 19 µmol/kg |  |
| CCCN(CCC)CC1COc2ccc(OC(=O)C(C)(C)C)cc21 (stereo not drawn) [Lu 24-042, 5-Pivaloyloxy-2,3-dihydro-N,N-dipropyl-3-benzofuranmethylamine] |  | 0.40 µmol/kg |  |  |  |
| CCCN(CCC)CC1COc2ccc(OC(=O)c3ccccc3N)cc21 (stereo not drawn) [Lu 25-165, 5-(2-aminobenzoyloxy)-2,3-dihydro-N,N-dipropyl-3-benzofuranmethylamine] |  |  |  |  | > 6 h |
| CCN(CC)CC1CCc2ccc(OC(=O)Nc3ccc(C(C)C)cc3)cc21 (stereo not drawn) [Lu 25-177, 6-(4-isopropylphenylaminocarbonyloxy)-N,N-diethyl-1-indanmethylamine] |  |  |  |  | > 6 h |
| CCCN(CCC)CC1CCc2ccc(OC(=O)c3ccccc3F)cc21 (stereo not drawn) [Lu 24-033, 6-(2-fluorbenzoyloxy)-N,N-dipropyl-1-indanmethylamine] |  |  |  |  | 4 h |
| CCCN(CCC)CC1CCc2ccc(OC(=O)c3ccccc3OC)cc21 (stereo not drawn) [Lu 24-030, 6-(2-methoxybenzoyloxy)-N,N-dipropyl-1-indanmethylamine] |  |  |  |  | 4 h |
| CCCN(C)CC1COc2ccc(O)cc21 (stereo not drawn) [Lu 24-103, 5-Hydroxy-2,3-dihydro-N-methyl-N-propyl-3-benzofuranmethylamine] | 4.5 µmol/kg | 1.2 µmol/kg |  | 290 µmol/kg |  |
| CCCN(CCc1cccs1)CC1COc2ccc(O)cc21 (stereo not drawn) [Lu 24-155, 5-Hydroxy-2,3-dihydro-N-propyl-N-(2-thienyl-2-ethyl)-3-benzofuranmethylamine] | 7.0 µmol/kg | 1.2 µmol/kg |  | 28 µmol/kg |  |
| CCCN(CCC)CC1CCc2ccc(OC(=O)c3c(F)cccc3F)cc21 (stereo not drawn) [Lu 24-029, 6-(2,6-Difluorbenzoyloxy)-N,N-dipropyl-1-indanmethylamine] |  |  |  |  | 4 h |
| CCCCN(CCCC)CC1CCc2ccc(O)cc21 (stereo not drawn) [Lu 22-028, N,N-Dibutyl-6-hydroxy-1-indanmethylamine] | 13 µmol/kg | > 14 µmol/kg |  |  |  |
| CCCNCC1CCc2ccc(O)cc21 (stereo not drawn) [Lu 21-138, 6-Hydroxy-N-propyl-1-indanmethylamine] | 19 µmol/kg | 10 µmol/kg |  |  |  |
| CCCN(CCC)CC1COc2ccc(O)cc21 (single isomer, unassigned; (+)) [Lu 24-122, (+)-5-hydroxy-2,3-dihydro-N,N-dipropyl-3-benzofuranmethylamine] | 0.81 µmol/kg | 0.16 µmol/kg |  |  |  |
| CCCN(CCC)CC1COc2ccc(OC(=O)NC(C)C)cc21 (stereo not drawn) [Lu 25-158, 5-isopropylaminocarbonyloxy-2,3-dihydro-N,N-dipropyl-3-benzofuranmethylamine] |  |  |  |  | 4 h |
| CCCN(CCC)CC1CCc2ccc(OC)cc21 (stereo not drawn) [Lu 21-097, N,N-dipropyl-6-methoxy-1-indanmethylamine] | > 14 µmol/kg | > 14 µmol/kg |  |  |  |
